Reference: patent US20140044814A1, “Composition and Methods for Permanent Hair Removal” (priority 2012, published 2014)

Test: Sea salt added to the turmeric mixture, folliculitis after treatment
Assay type: in vivo
Text: It is believed that the sea salt help to open or penetrate the cellular wall. […] It is believed that the sea salt should be between about 1-10 parts of the turmeric mixture, with the remaining 90-99 parts being turmeric and milk/clay/etc. A presently preferred range is about 1-2 parts sea salt to about […] turmeric mixture.

## sea salt
  folliculitis after treatment: appears to help to minimize folliculitis
